{"source": "ChEMBL document CHEMBL5244281", "about": "“Tackling multidrug-resistant Staphylococcus aureus by natural products and their analogues acting as NorA efflux pump inhibitors” (Bioorg Med Chem, 2023)", "key": {"[1]": {"molecular_target": "T1, Quinolone resistance protein NorA (Staphylococcus aureus) (UniProt P0A0J7)", "T1 sequence (whole entry)": "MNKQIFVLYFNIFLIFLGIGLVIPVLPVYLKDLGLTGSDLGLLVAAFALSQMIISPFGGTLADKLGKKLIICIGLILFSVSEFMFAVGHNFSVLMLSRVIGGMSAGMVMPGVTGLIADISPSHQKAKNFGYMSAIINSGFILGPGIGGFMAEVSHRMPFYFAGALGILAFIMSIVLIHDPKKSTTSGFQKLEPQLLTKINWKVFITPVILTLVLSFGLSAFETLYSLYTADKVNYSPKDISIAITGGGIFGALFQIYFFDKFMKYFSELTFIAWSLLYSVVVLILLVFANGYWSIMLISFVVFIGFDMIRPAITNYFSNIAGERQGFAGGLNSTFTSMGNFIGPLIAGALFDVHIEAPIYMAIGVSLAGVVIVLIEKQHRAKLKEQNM", "assay": "Modulation of norfloxacin-induced inhibition of NorA efflux pump in Staphylococcus aureus 1199B overexpressing NorA efflux pump assessed as reduction in norfloxacin MIC at 1/4 times of MIC by resazurin based assay"}, "[2]": {"molecular_target": "T1, Quinolone resistance protein NorA (Staphylococcus aureus)", "assay": "Modulation of EtBr -induced inhibition of NorA efflux pump in Staphylococcus aureus 1199B overexpressing NorA efflux pump assessed as reduction in EtBr MIC at 1/4 times of MIC using EtBr as substrate by resazurin based assay"}, "Staphylococcus aureus [3]": {"tested_on": "Staphylococcus aureus", "assay": "Antibacterial activity against norfloxacin resistant Staphylococcus aureus 1199 assessed as bacterial growth inhibition incubated for 24 hrs by resazurin based broth microdilution method", "assay_type": "functional"}, "Staphylococcus aureus [4]": {"tested_on": "Staphylococcus aureus", "assay": "Antibacterial activity against norfloxacin resistant Staphylococcus aureus 1199B overexpressing NorA assessed as bacterial growth inhibition incubated for 24 hrs by resazurin based broth microdilution method", "assay_type": "functional"}, "Staphylococcus aureus [5]": {"tested_on": "Staphylococcus aureus", "assay": "Antibacterial activity against tetracycline-resistant Staphylococcus aureus XU212 assessed as bacterial growth inhibition incubated for 18 hrs by MTT assay", "assay_type": "functional"}, "Staphylococcus aureus [6]": {"tested_on": "Staphylococcus aureus", "assay": "Antibacterial activity against Staphylococcus aureus ATCC25923 assessed as bacterial growth inhibition incubated for 18 hrs by MTT assay", "assay_type": "functional"}, "Staphylococcus aureus [7]": {"tested_on": "Staphylococcus aureus", "assay": "Antibacterial activity against Staphylococcus aureus RN4220 assessed as bacterial growth inhibition incubated for 18 hrs by MTT assay", "assay_type": "functional"}, "Staphylococcus aureus [8]": {"tested_on": "Staphylococcus aureus", "assay": "Antibacterial activity against Staphylococcus aureus EMRSA-15 assessed as bacterial growth inhibition incubated for 18 hrs by MTT assay", "assay_type": "functional"}, "Staphylococcus aureus [9]": {"tested_on": "Staphylococcus aureus", "assay": "Antibacterial activity against Staphylococcus aureus 1199B overexpressing NorA assessed as bacterial growth inhibition incubated for 18 hrs by MTT assay", "assay_type": "functional"}, "Staphylococcus aureus [10]": {"tested_on": "Staphylococcus aureus", "assay": "Antibacterial activity against methicillin-resistant Staphylococcus aureus 1199B overexpressing NorA gene assessed as bacterial growth inhibition", "assay_type": "functional"}, "[11]": {"molecular_target": "T1, Quinolone resistance protein NorA (Staphylococcus aureus)", "assay": "Potentiation of EtBr-induced inhibition of NorA efflux pump in Staphylococcus aureus 1199A assessed as reduction in EtBr MIC at 1/8 times of MIC incubated for 24 hrs by resazurin based broth microdilution method (Rvb=32 ug/ml)"}, "[12]": {"molecular_target": "T1, Quinolone resistance protein NorA (Staphylococcus aureus)", "assay": "Potentiation of norfloxacin-induced inhibition of NorA efflux pump in Staphylococcus aureus 1199A assessed as reduction in norfloxacin MIC at 1/8 times of MIC incubated for 24 hrs by resazurin based broth microdilution method (Rvb= […] ug/ml)"}, "[13]": {"molecular_target": "T1, Quinolone resistance protein NorA (Staphylococcus aureus)", "assay": "Potentiation of norfloxacin-induced inhibition of NorA efflux pump in Staphylococcus aureus 1199B overexpressing NorA efflux pump assessed as reduction in norfloxacin MIC at 1/8 times of MIC incubated for 24 hrs by resazurin based broth microdilution method (Rvb= 128 ug/ml)"}, "[14]": {"molecular_target": "T1, Quinolone resistance protein NorA (Staphylococcus aureus)", "assay": "Potentiation of EtBr-induced inhibition of NorA efflux pump in Staphylococcus aureus 1199B overexpressing NorA efflux pump assessed as reduction in EtBr MIC at 1/8 times of MIC incubated for 24 hrs by resazurin based broth microdilution method (Rvb= 32 ug/ml)"}, "Staphylococcus aureus [15]": {"tested_on": "Staphylococcus aureus", "assay": "Antibacterial activity against Staphylococcus aureus 1199B overexpressing NorA efflux gene assessed as bacterial growth inhibition incubated for 24 hrs by broth microdilution method", "assay_type": "functional"}, "Staphylococcus aureus [16]": {"tested_on": "Staphylococcus aureus", "assay": "Antibacterial activity against NorA knockout Staphylococcus aureus K1758 assessed as bacterial growth inhibition incubated for 24 hrs by broth microdilution method", "assay_type": "functional"}, "Staphylococcus aureus [17]": {"tested_on": "Staphylococcus aureus", "assay": "Antibacterial activity against Staphylococcus aureus 1199 assessed as bacterial growth inhibition incubated for 24 hrs by broth microdilution method", "assay_type": "functional"}, "Staphylococcus aureus [18]": {"tested_on": "Staphylococcus aureus", "assay": "Antibacterial activity against norfloxacin resistant Staphylococcus aureus 1199B overexpressing NorA assessed as bacterial growth inhibition incubated for 24 hrs by resazurin based microdilution assay", "assay_type": "functional"}, "Staphylococcus aureus [19]": {"tested_on": "Staphylococcus aureus", "assay": "Antibacterial activity against norfloxacin resistant Staphylococcus aureus 1199B overexpressing NorA efflux pump gene assessed as bacterial growth inhibition incubated for 18 to 24 hrs by NCCLS protocol based microdilution method", "assay_type": "functional", "conditions": "time 18-24 hrs"}, "Staphylococcus aureus [20]": {"tested_on": "Staphylococcus aureus", "assay": "Antibacterial activity against norfloxacin resistant Staphylococcus aureus RN4220 overexpressing MsrA efflux pump gene assessed as bacterial growth inhibition incubated for 18 to 24 hrs by NCCLS protocol based microdilution method", "assay_type": "functional", "conditions": "time 18-24 hrs"}, "Staphylococcus aureus [21]": {"tested_on": "Staphylococcus aureus", "assay": "Antibacterial activity against norfloxacin resistant Staphylococcus aureus IS-58 overexpressing TetK efflux pump gene assessed as bacterial growth inhibition incubated for 18 to 24 hrs by NCCLS protocol based microdilution method", "assay_type": "functional", "conditions": "time 18-24 hrs"}}, "data": [{"smiles": "O=C1C[C@@H](c2ccc(O)cc2)Oc2cc(O)cc(O)c21", "values": [{"measurement": "MIC", "setting": "[1]", "value": 32, "unit": "µg/mL"}, {"measurement": "MIC", "setting": "[2]", "value": 16, "unit": "µg/mL"}]}, {"smiles": "C=CCc1ccccc1", "note": "[ALLYLBENZENE]", "values": [{"measurement": "MIC", "setting": "Staphylococcus aureus [3]", "value": "> 1020", "unit": "µg/mL"}, {"measurement": "MIC", "setting": "Staphylococcus aureus [4]", "value": "> 1020", "unit": "µg/mL"}]}, {"smiles": "CC1(C)C=Cc2c(cc3occ(-c4ccc(O)cc4)c(=O)c3c2O)O1", "note": "[ALPINUMISOFLAVONE]", "values": [{"measurement": "MIC", "setting": "Staphylococcus aureus [5]", "value": 32, "unit": "µg/mL"}, {"measurement": "MIC", "setting": "Staphylococcus aureus [6]", "value": 32, "unit": "µg/mL"}, {"measurement": "MIC", "setting": "Staphylococcus aureus [7]", "value": 32, "unit": "µg/mL"}, {"measurement": "MIC", "setting": "Staphylococcus aureus [8]", "value": 32, "unit": "µg/mL"}, {"measurement": "MIC", "setting": "Staphylococcus aureus [9]", "value": 32, "unit": "µg/mL"}]}, {"smiles": "COc1ccc(-c2oc3cc(OC)c(OC)c(O)c3c(=O)c2OC)cc1OC", "note": "[ARTEMETIN]", "values": [{"measurement": "MIC", "setting": "Staphylococcus aureus [10]", "value": 256, "unit": "µg/mL"}]}, {"smiles": "Cc1ccc(C(C)C)cc1O", "note": "[CARVACROL]", "values": [{"measurement": "MIC", "setting": "[11]", "value": 25.4, "unit": "µg/mL"}, {"measurement": "MIC", "setting": "[12]", "value": 32, "unit": "µg/mL"}, {"measurement": "MIC", "setting": "Staphylococcus aureus [3]", "value": 256, "unit": "µg/mL"}, {"measurement": "MIC", "setting": "[13]", "value": 64, "unit": "µg/mL"}, {"measurement": "MIC", "setting": "Staphylococcus aureus [4]", "value": 256, "unit": "µg/mL"}, {"measurement": "MIC", "setting": "[14]", "value": 16, "unit": "µg/mL"}]}, {"smiles": "C=CCc1ccc(O)c(OC)c1", "note": "[EUGENOL]", "values": [{"measurement": "MIC", "setting": "Staphylococcus aureus [3]", "value": 102, "unit": "µg/mL"}, {"measurement": "MIC", "setting": "Staphylococcus aureus [4]", "value": 128, "unit": "µg/mL"}]}, {"smiles": "O=c1c(O)c(-c2ccccc2)oc2cc(O)cc(O)c12", "note": "[GALANGIN]", "values": [{"measurement": "MIC", "setting": "Staphylococcus aureus [15]", "value": 250, "unit": "µg/mL"}, {"measurement": "MIC", "setting": "Staphylococcus aureus [16]", "value": 125, "unit": "µg/mL"}, {"measurement": "MIC", "setting": "Staphylococcus aureus [17]", "value": 125, "unit": "µg/mL"}]}, {"smiles": "CC[n+]1c(-c2ccccc2)c2cc(N)ccc2c2ccc(N)cc21.[Br-]", "note": "[HOMIDIUM BROMIDE]", "values": [{"measurement": "MIC", "setting": "Staphylococcus aureus [18]", "value": 32, "unit": "µg/mL"}]}, {"smiles": "O=c1c(O)c(-c2ccc(O)cc2)oc2cc(O)cc(O)c12", "note": "[KAEMPFEROL]", "values": [{"measurement": "MIC", "setting": "Staphylococcus aureus [15]", "value": 250, "unit": "µg/mL"}, {"measurement": "MIC", "setting": "Staphylococcus aureus [16]", "value": 125, "unit": "µg/mL"}, {"measurement": "MIC", "setting": "Staphylococcus aureus [17]", "value": 125, "unit": "µg/mL"}]}, {"smiles": "COc1c2occc2cc2ccc(=O)oc12", "note": "[METHOXSALEN]", "values": [{"measurement": "MIC", "setting": "Staphylococcus aureus [19]", "value": "> 256", "unit": "µg/mL"}, {"measurement": "MIC", "setting": "Staphylococcus aureus [20]", "value": "> 256", "unit": "µg/mL"}, {"measurement": "MIC", "setting": "Staphylococcus aureus [21]", "value": "> 256", "unit": "µg/mL"}]}, {"smiles": "C=CCc1cc(OC)c(O)c(OC)c1", "note": "[METHOXYEUGENOL]", "values": [{"measurement": "MIC", "setting": "Staphylococcus aureus [3]", "value": 32, "unit": "µg/mL"}, {"measurement": "MIC", "setting": "Staphylococcus aureus [4]", "value": 128, "unit": "µg/mL"}]}, {"smiles": "CCn1cc(C(=O)O)c(=O)c2cc(F)c(N3CCNCC3)cc21", "note": "[NORFLOXACIN]", "values": [{"measurement": "MIC", "setting": "Staphylococcus aureus [10]", "value": 32, "unit": "µg/mL"}, {"measurement": "MIC", "setting": "Staphylococcus aureus [18]", "value": 64, "unit": "µg/mL"}]}, {"smiles": "COc1cc(O)c2c(=O)c(OC)c(-c3ccc(O)c(OC)c3)oc2c1", "note": "[PACHYPODOL]", "values": [{"measurement": "MIC", "setting": "Staphylococcus aureus [10]", "value": 256, "unit": "µg/mL"}]}, {"smiles": "CC(C)=CCOc1c2occc2cc2ccc(=O)oc12", "note": "[PENTOSALEN]", "values": [{"measurement": "MIC", "setting": "Staphylococcus aureus [19]", "value": "> 256", "unit": "µg/mL"}, {"measurement": "MIC", "setting": "Staphylococcus aureus [20]", "value": "> 256", "unit": "µg/mL"}, {"measurement": "MIC", "setting": "Staphylococcus aureus [21]", "value": "> 256", "unit": "µg/mL"}]}, {"smiles": "O=C1C[C@@H](c2ccccc2)Oc2cc(O)cc(O)c21", "note": "[PINOCEMBRIN]", "values": [{"measurement": "MIC", "setting": "Staphylococcus aureus [15]", "value": 500, "unit": "µg/mL"}, {"measurement": "MIC", "setting": "Staphylococcus aureus [16]", "value": 250, "unit": "µg/mL"}, {"measurement": "MIC", "setting": "Staphylococcus aureus [17]", "value": 250, "unit": "µg/mL"}]}, {"smiles": "COc1ccc(-c2coc3cc(O)cc(O)c3c2=O)cc1O", "note": "[PRATENSEIN]", "values": [{"measurement": "MIC", "setting": "Staphylococcus aureus [5]", "value": 32, "unit": "µg/mL"}, {"measurement": "MIC", "setting": "Staphylococcus aureus [6]", "value": 32, "unit": "µg/mL"}, {"measurement": "MIC", "setting": "Staphylococcus aureus [7]", "value": 32, "unit": "µg/mL"}, {"measurement": "MIC", "setting": "Staphylococcus aureus [8]", "value": 32, "unit": "µg/mL"}, {"measurement": "MIC", "setting": "Staphylococcus aureus [9]", "value": 32, "unit": "µg/mL"}]}, {"smiles": "Cc1ccc(C(C)C)c(O)c1", "note": "[THYMOL]", "values": [{"measurement": "MIC", "setting": "[11]", "value": 25.4, "unit": "µg/mL"}, {"measurement": "MIC", "setting": "[12]", "value": 32, "unit": "µg/mL"}, {"measurement": "MIC", "setting": "Staphylococcus aureus [3]", "value": 256, "unit": "µg/mL"}, {"measurement": "MIC", "setting": "[13]", "value": 64, "unit": "µg/mL"}, {"measurement": "MIC", "setting": "Staphylococcus aureus [4]", "value": 256, "unit": "µg/mL"}, {"measurement": "MIC", "setting": "[14]", "value": 16, "unit": "µg/mL"}]}]}
